Assay results taken from US20240287071A1, “CLASS OF IMIDAZOLIDINOPYRIMIDONE COMPOUNDS AND USE THEREOF IN TREATMENT OF HSCLPP-MEDIATED DISEASES” (SICHUAN UNIVERSITY, priority 2021, published 2024).

Biological target: HsClpP (Homo sapiens, UniProt Q16740)
Test: HsClpP enzyme hydrolysis of short peptide substrate AC-WLA-AMC
Settings: promoting hydrolysis of short peptide substrate by HsClpP, relative to blank control
Procedure: This study evaluated the regulatory activity of the compounds on HsClpP by examining the hydrolysis effects of HsClpP protein on the AC-WLA-AMC substrate . […] The small molecules and the HsClpP protein solution were added to a flat-bottomed black 96-well plate, with three replicate wells for each group. […] DMSO was used as a negative control instead of small molecules. The multiple of readings at different concentrations against the readings of DMSO group was recorded as an index for evaluation of hydrolysis activity. . . . GraphPad Prism was used to plot the obtained multiple values and calculate the EC50 values.

HsClpP, sequence (Q16740 57-277): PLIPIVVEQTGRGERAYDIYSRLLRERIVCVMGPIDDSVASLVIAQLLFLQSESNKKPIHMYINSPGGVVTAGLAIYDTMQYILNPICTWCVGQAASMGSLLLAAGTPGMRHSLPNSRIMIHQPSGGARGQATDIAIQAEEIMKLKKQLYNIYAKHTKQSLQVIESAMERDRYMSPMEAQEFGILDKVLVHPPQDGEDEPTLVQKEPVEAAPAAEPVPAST

SMILES | Regulatory efficacy 1 μM | Regulatory efficacy 10 μM
CCN1CCn2c1nc(=O)c1c2CCN(Cc2ccccc2)C1 [Compound 3, 7-benzyl-3-ethyl-2,3,6,7,8,9-hexahydroimidazo[1,2-a]pyrido[3,4-e]pyrimidin-5(1H)-one] | + (+ indicating that the increased efficacy is less than 50% of the blank control group) | + (+ indicating that the increased efficacy is less than 50% of the blank control group)
CC(C)CCN1CCn2c1nc(=O)c1c2CCN(Cc2ccccc2)C1 [Compound 4, 7-benzyl-3-isopentyl-2,3,6,7,8,9-hexahydroimidazo[1,2-a]pyrido[3,4-e]pyrimidin-5(1H)-one] | + + | + +
O=c1nc2n(c3c1CN(Cc1ccccc1)CC3)CCN2c1ccccc1 [Compound 9, 7-benzyl-3-phenyl-2,3,6,7,8,9-hexahydroimidazo[1,2-a]pyrido[3,4-e]pyrimidin-5(1H)-one] | + (+ indicating that the increased efficacy is less than 50% of the blank control group) | + +
O=c1nc2n(c3c1CN(Cc1ccccc1)CC3)CCN2CCc1ccccc1 [Compound 10, 7-benzyl-3-(phenylethyl)-2,3,6,7,8,9-hexahydroimidazo[1,2-a]pyrido[3,4-e]pyrimidin-5(1H)-one] | + + | + +
O=c1nc2n(c3c1CN(Cc1ccccc1)CC3)CCN2Cc1cccnc1 [Compound 23, 7-benzyl-3-(3-pyridinylmethyl)-2,3,6,7,8,9-hexahydroimidazo[1,2-a]pyrido[3,4-e]pyrimidin-5(1H)-one] | + (+ indicating that the increased efficacy is less than 50% of the blank control group) | + +
O=c1nc2n(c3c1CN(Cc1ccccc1)CC3)CCN2Cc1ccncc1 [Compound 24, 7-benzyl-3-(4-pyridinylmethyl)-2,3,6,7,8,9-hexahydroimidazo[1,2-a]pyrido[3,4-e]pyrimidin-5(1H)-one] | + (+ indicating that the increased efficacy is less than 50% of the blank control group) | + +
O=c1nc2n(c3c1CN(Cc1ccccc1)CC3)CCN2Cc1ccco1 [Compound 25, 7-benzyl-3-(2-furfuryl)-2,3,6,7,8,9-hexahydroimidazo[1,2-a]pyrido[3,4-e]pyrimidin-5(1H)-one] | + (+ indicating that the increased efficacy is less than 50% of the blank control group) | + +
Cc1ccccc1CN1CCn2c1nc(=O)c1c2CCN(C(=O)OC(C)(C)C)C1 [Compound 27, 7-tert-butoxycarbonyl-3-(2-methylbenzyl)-2,3,6,7,8,9-hexahydroimidazo[1,2-a]pyrido[3,4-e]pyrimid in-5(1H)-one] | + + | + +
Cc1ccccc1CN1CCn2c1nc(=O)c1c2CCN(CC(C)C)C1 [Compound 29, 7-isobutyl-3-(2-methylbenzyl)-2,3,6,7,8,9-hexahydroimidazo[1,2-a]pyrido[3,4-e]pyrimidin-5(1H)-one] | + (+ indicating that the increased efficacy is less than 50% of the blank control group) | + (+ indicating that the increased efficacy is less than 50% of the blank control group)
Cc1ccccc1CN1CCn2c1nc(=O)c1c2CCN(CC2CC2)C1 [Compound 30] | + (+ indicating that the increased efficacy is less than 50% of the blank control group) | + (+ indicating that the increased efficacy is less than 50% of the blank control group)
Cc1ccccc1CN1CCn2c1nc(=O)c1c2CCN(CC2CCCCC2)C1 [Compound 31, 7-cyclohexylmethyl-3-(2-methylbenzyl)-2,3,6,7,8,9-hexahydroimidazo[1,2-a]pyrido[3,4-e]pyrimidin-5(1H)-one] | + (+ indicating that the increased efficacy is less than 50% of the blank control group) | + +
Cc1ccc(CN2CCc3c(c(=O)nc4n3CCN4Cc3ccccc3C)C2)cc1 [Compound 33, 3-(2-methylbenzyl)-7-(4-methylbenzyl)-2,3,6,7,8,9-hexahydroimidazo[1,2-a]pyrido[3,4-e]pyrimidin-5(1H)-one] | + + | + +
Cc1ccccc1CN1CCn2c1nc(=O)c1c2CCN(Cc2ccccc2C#N)C1 [Compound 34, 2-((3-(2-methylbenzyl)-5-oxo-2,3,6,7,8,9-hexahydroimidazo[1,2-a]pyrido[3,4-e]pyrimidin-7(6H)-yl)methyl)benzonitrile] | + + | + +
Cc1ccccc1CN1CCn2c1nc(=O)c1c2CCN(Cc2ccc(F)c(F)c2)C1 [Compound 36, 7-(3,4-difluorobenzyl)-3-(2-methylbenzyl)-2,3,6,7,8,9-hexahydroimidazo[1,2-a]pyrido[3,4-e]pyrimidin-5(1H)-one] | + + | + +
Cc1ccccc1CN1CCn2c1nc(=O)c1c2CCN(Cc2ccc(F)cc2F)C1 [Compound 37, 7-(2,4-difluorobenzyl)-3-(2-methylbenzyl)-2,3,6,7,8,9-hexahydroimidazo[1,2-a]pyrido[3,4-e]pyrimidin-5(1H)-one] | + (+ indicating that the increased efficacy is less than 50% of the blank control group) | + +
Cc1ccccc1CN1CCn2c1nc(=O)c1c2CCN(Cc2ccc(F)cc2)C1 [Compound 38, 7-(4-fluorobenzyl)-3-(2-methylbenzyl)-2,3,6,7,8,9-hexahydroimidazo[1,2-a]pyrido[3,4-e]pyrimidin-5(1H)-one] | + + | + +
Cc1ccccc1CN1CCn2c1nc(=O)c1c2CCN(C(=O)Cc2ccccc2)C1 [Compound 40, 3-(2-methylbenzyl)-7-(2-phenylacetyl)-2,3,6,7,8,9-hexahydroimidazo[1,2-a]pyrido[3,4-e]pyrimidin-5(1H)-one] | + (+ indicating that the increased efficacy is less than 50% of the blank control group) | + (+ indicating that the increased efficacy is less than 50% of the blank control group)
Cc1ccccc1CN1CCn2c1nc(=O)c1c2CCN(CCCCc2ccccc2)C1 [Compound 41, 3-(2-methylbenzyl)-7-(4-phenylbutyl)-2,3,6,7,8,9-hexahydroimidazo[1,2-a]pyrido[3,4-e]pyrimidin-5 (1H)-one] | + (+ indicating that the increased efficacy is less than 50% of the blank control group) | + (+ indicating that the increased efficacy is less than 50% of the blank control group)
Cc1ccccc1CN1CCn2c1nc(=O)c1c2CCN(CCc2ccccc2)C1 [Compound 42, 3-(2-methylbenzyl)-7-phenethyl-2,3,6,7,8,9-hexahydroimidazo[1,2-a]pyrido[3,4-e]pyrimidin-5(1H)-one] | + (+ indicating that the increased efficacy is less than 50% of the blank control group) | + +
Cc1ccccc1CN1CCn2c1nc(=O)c1c2CCN(Cc2cccnc2)C1 [Compound 43, 3-(2-methylbenzyl)-7-(pyridin-3-methyl)-2,3,6,7,8,9-hexahydroimidazo[1,2-a]pyrido[3,4-e]pyrimidi n-5(1H)-one] | + (+ indicating that the increased efficacy is less than 50% of the blank control group) | + +
Cc1ccccc1CN1CCn2c1nc(=O)c1c2CCN(Cc2ccncc2)C1 [Compound 44, 3-(2-methylbenzyl)-7-(pyridin-4-methyl)-2,3,6,7,8,9-hexahydroimidazo[1,2-a]pyrido[3,4-e]pyrimidi n-5(1H)-one] | + (+ indicating that the increased efficacy is less than 50% of the blank control group) | + +
Cc1ccccc1CN1CCn2c1nc(=O)c1c2CCN(c2nncs2)C1 [Compound 45, 3-(2-methylbenzyl)-7-(1,3,4-thiadiazol-2-yl)-2,3,6,7,8,9-hexahydroimidazo[1,2-a]pyrido[3,4-e]pyri midin-5(1H)-one] | + (+ indicating that the increased efficacy is less than 50% of the blank control group) | + (+ indicating that the increased efficacy is less than 50% of the blank control group)
Cc1ccccc1CN1CCCn2c1nc(=O)c1c2CCN(Cc2ccccc2)C1 [Compound 46, 3-Benzyl-7-(2-methylbenzyl)-1,2,3,4,7,8,9, 10-octahydro-5H-pyrido[3,4-e]pyrimido[1,2-a] pyrimidin-5-one] | + (+ indicating that the increased efficacy is less than 50% of the blank control group) | + +
Cc1ccccc1CN1CCn2c1nc(=O)c1c2C(F)(F)CN(Cc2ccccc2)C1 [Compound 47, 7-Benzyl-9,9-difluoro-3-(2-methylbenzyl)-2,3,6,7,8,9-hexahydroimidazo[1,2-a]pyrido[3,4-e]pyrimid in-5(1H)-one] | + + | + +
Cc1cccc(CN2CCn3c2nc(=O)c2c3C(F)(F)CN(Cc3ccccc3)C2)c1 [Compound 48, 7-Benzyl-9,9-difluoro-3-(3-methylbenzyl)-2,3,6,7,8,9-hexahydroimidazo[1,2-a]pyrido[3,4-e]pyrimid in-5(1H)-one] | + + | + +
